Counter-ions that a name gives are not always drawn.
What was measured:
[1] = tested on: collagenase; details: literature / U.S. Pat. No. 4,297,372; cited from earlier work
[2] = Binding (competition) assay with 14C-6,6'-[ureylenebis(m-phenylenecarbonylimino)]bis[4-hydroxy-2-naphthalenesulfonic acid]disodium salt on tooth powder; details: relative to 6,6'-[ureylenebis(m-phenylenecarbonylimino)]bis[4-hydroxy-2-naphthalenesulfonic acid]disodium salt; 1 mg tooth powder, PBS, 37° C., 60 minutes; >1 = less efficient
Description: Using (radioactive) ^14 C-6,6'-[ureylenebis(m-phenylenecarbonylimino)]bis[4-hydroxy-2-naphthalenesulfonic acid]disodium salt a binding (competition) assay procedure is established which involves an insoluble substrate such as tooth powder which will bind the ^14 C-6,6'-[ureylenebis(m-phenylenecarbonylimino)]bis[4-hydroxy-2-naphthalenesulfonic acid]disodium salt. The amount of ^14 C-6,6'-[ureylenebis(m-phenylenecarbonylimino)]bis[4-hydroxy-2-naphthalenesulfonic acid]disodium salt bound is determined by washing away the unbound radioactive compound and counting CPM (counts per minute) of the insoluble tooth powder/^14 C-6,6'-[ureylenebis(m-phenylenecarbonylimino)]bis[4-hydroxy-2-naphthalenesulfonic acid]disodium salt complex. […] The inhibiting effect of the test compound on binding compared to non-radioactive 6,6'-[ureylenebis(m-phenylenecarbonylimino)]bis[4-hydroxy-2-naphthalenesulfonic acid]disodium salt was determined as follows: A one mg amount of tooth powder was incubated in one ml of phosphate buffered saline (PBS) with 10 μg of ^14 C-6,6'-[ureylenebis(m-phenylenecarbonylimino)]bis[4-hydroxy-2-naphthalenesulfonic acid]disodium salt and varying dose amounts (ranging from 0 to 2 mg) of the same cold (non-radioactive) compound. […]

[3] = target: T1, human skin fibroblast collagenase (Homo sapiens, UniProt P03956); experiment: Collagenase Assay, Test Code 006: degradation of 14C-labeled native collagen fibrils by collagenase; format: biochemical; details: ratio of weight (μg) for 50% inhibition over that of 6,6'-[ureylenebis(m-phenylenecarbonylimino)]bis[4-hydroxy-2-naphthalenesulfonic acid]disodium salt; test conc.: 30 μg/ml; 37° C., 16 hours; >1 = less active
T1 construct: endogenous in cells; host or cells: human skin fibroblasts
T1 sequence (P03956 100-469): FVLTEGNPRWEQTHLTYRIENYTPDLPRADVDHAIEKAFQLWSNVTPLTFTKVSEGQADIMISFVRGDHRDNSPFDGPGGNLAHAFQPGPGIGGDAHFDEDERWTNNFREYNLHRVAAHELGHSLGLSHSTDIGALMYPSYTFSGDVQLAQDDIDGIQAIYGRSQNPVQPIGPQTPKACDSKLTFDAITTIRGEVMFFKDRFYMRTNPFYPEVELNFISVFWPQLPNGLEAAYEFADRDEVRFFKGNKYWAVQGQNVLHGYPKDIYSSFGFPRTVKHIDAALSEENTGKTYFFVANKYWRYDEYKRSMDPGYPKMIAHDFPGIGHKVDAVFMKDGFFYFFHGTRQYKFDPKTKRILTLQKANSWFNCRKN
Experimental: (i) Collagenase Assay--Test Code 006
A collagenase assay was performed by a modification of the method of Harper, et al., Biochem., 10, 3035 (1971). In a typical assay (total volume of 0.45 ml), 100 μl of the activated enzyme was added to the ^14 C-labeled collagen fibrils (250 μl) followed by 100 μl of 50 mM cacodylate, pH 7.4, containing 5 mM calcium chloride. After incubation at 37° C. for 16 hours, the tubes were centrifuged in a Beckman microfuge for five minutes at full speed. An aliquot (200 μl) of the supernatant, representing collagenase digestion products of the fibril, was assayed for radioactivity. The effect of the test compound on collagen degradation by collagenase was examined as follows:
Varying concentrations of the test compound (in distilled water) were added to the assay tubes containing active collagenase (total volume 450 μl) and after 16 hours the amount of radioactivity in the supernatant was determined. Appropriate blanks and trypsin controls were run in parallel.
The result is expressed as an ID50 collagenase value which represents a ratio of the weight (μg) of the representative compound required for 50% inhibition of collagenase over the weight (μg) of 6,6,-[ureylenebis(m-phenylenecarbonylimino)]bis[4-hydroxy-2-naphthalenesulfonic acid]disodium salt required for 50% inhibition of collagenase.

[4] = Binding to insoluble collagenous structures
[5] = tested on: corneal ulceration; details: alkali burned rabbit, applied to the eye; cited from earlier work
[6] = mechanistic studies; cited from earlier work
[7] = tested on: corneal ulceration; details: human; cited from earlier work

In the case of `O[C@H](CS)[C@H](O)CS` (racemic) [dithiothreitol], the “collagenase inhibition (in words)” value [1] is listed as “collagenase inhibitors”.

In the case of `c1cnc2c(c1)ccc1cccnc12` [1,10-phenanthroline], the “collagenase inhibition (in words)” value [1] is listed as “collagenase inhibitors”.

For `O=C(Nc1cccc(C(=O)Nc2ccc3cc(S(=O)(=O)O)cc(O)c3c2)c1)C(=O)Nc1cccc(C(=O)Nc2ccc3cc(S(=O)(=O)O)cc(O)c3c2)c1` [6,6'-[Oxalylbis(imino-m-phenylenecarbonylimino)]bis-[4-hydroxy-2-naphthalenesulfonic acid]disodium salt], the “ID50 Binding Ratio” value [2] was 1.00 and the “ID50 Collagenase Ratio” value [3] was 1.10.

For `O=C(Nc1cccc(C(=O)Nc2ccc3cc(S(=O)(=O)O)cc(O)c3c2)c1)Nc1cccc(C(=O)Nc2ccc3cc(S(=O)(=O)O)cc(O)c3c2)c1` [6,6'-[ureylenebis(m-phenylenecarbonylimino)]bis[4-hydroxy-2-naphthalenesulfonic acid]disodium salt], the “collagenase inhibition (in words)” value [1] is given as “established as an inhibitor of the degradation of collagen”, the “binding to insoluble collagenous structures” value [4] is given as “will bind to insoluble collagenous structures such as teeth, dentin, gingiva and the like” and the “character of binding (saturability, reversibility)” value [4] is given as “saturable and reversible”.

In the case of `O=C([O-])CN(CCN(CC(=O)[O-])CC(=O)[O-])CC(=O)[O-].[Ca+2].[Ca+2]` [Calcium ethylenediaminetetraacetate], the “reduction of frequency of ulceration” value [5] is given as “reduce the frequency of ulceration”.

For `F` [Fluoride], the binding to enamel [6] is listed as “binds to enamel”.

In the case of `Cc1ccc(C(=O)Nc2ccc(S(=O)(=O)O)c3cc(S(=O)(=O)O)cc(S(=O)(=O)O)c23)cc1NC(=O)c1cccc(NC(=O)Nc2cccc(C(=O)Nc3cc(C(=O)Nc4ccc(S(=O)(=O)O)c5cc(S(=O)(=O)O)cc(S(=O)(=O)O)c45)ccc3C)c2)c1` [Suramin], the “collagenase inhibition (in words)” value [1] is listed as “not inhibiting the action of collagenase”.

For `CC(=O)N[C@@H](CS)C(=O)O` [acetylcysteine], the “effectiveness in treatment of acute and chronic corneal ulceration” value [7] is given as “effective in the treatment of acute and chronic corneal ulceration” and the “reduction of frequency of ulceration” value [5] is given as “reduce the frequency of ulceration”.

For `N[C@@H](CS)C(=O)O` [cysteine], the “effectiveness in treatment of acute and chronic corneal ulceration” value [7] is given as “effective in the treatment of acute and chronic corneal ulceration” and the “collagenase inhibition (in words)” value [1] is given as “collagenase inhibitors”.

For `Cc1cc(-c2ccc(/N=N/c3c(S(=O)(=O)O)cc4cc(S(=O)(=O)O)cc(N)c4c3O)c(C)c2)ccc1/N=N/c1c(S(=O)(=O)O)cc2cc(S(=O)(=O)O)cc(N)c2c1O` [trypan blue], the “collagenase inhibition (in words)” value [1] is given as “inhibiting the activity of collagenase, or a proteinase contaminant in the collagenase preparation”.

In the case of sodium auriothiomalate, the “collagenase inhibition (in words)” value [1] is given as “collagenase inhibitors”.

In the case of “α2 -macroglobulin: Naturally occurring collagenase inhibitors include the serum components α2 -macroglobulin”, the “collagenase inhibition (in words)” value [1] is listed as “collagenase inhibitors”.

— US4599204A, “Oxalylamides useful as dental antiplaque agents and inhibitors of connective tissue destruction” (American Cyanamid Company, priority 1985, dated 1986)
